Consider seven molecules from EP0321100A2, “Piperazine derivatives, their acid addition salts and a process for the preparation of same” (SPOFA spojené podniky pro zdravotnickou vyrobu, priority 1987, dated 1989).

pIC50: −log10 of the molar value. Like-named read-outs stand apart in the source and are kept apart here.

The target in data set [1] is T1, dopamine D-2 receptors in the rat brain striatum (Rattus norvegicus, UniProt P61169).
T1 construct: dopamine D-2 receptors in the rat brain striatum; from tissue; host or cells: rat brain striatum
T1 sequence (P61169 whole entry): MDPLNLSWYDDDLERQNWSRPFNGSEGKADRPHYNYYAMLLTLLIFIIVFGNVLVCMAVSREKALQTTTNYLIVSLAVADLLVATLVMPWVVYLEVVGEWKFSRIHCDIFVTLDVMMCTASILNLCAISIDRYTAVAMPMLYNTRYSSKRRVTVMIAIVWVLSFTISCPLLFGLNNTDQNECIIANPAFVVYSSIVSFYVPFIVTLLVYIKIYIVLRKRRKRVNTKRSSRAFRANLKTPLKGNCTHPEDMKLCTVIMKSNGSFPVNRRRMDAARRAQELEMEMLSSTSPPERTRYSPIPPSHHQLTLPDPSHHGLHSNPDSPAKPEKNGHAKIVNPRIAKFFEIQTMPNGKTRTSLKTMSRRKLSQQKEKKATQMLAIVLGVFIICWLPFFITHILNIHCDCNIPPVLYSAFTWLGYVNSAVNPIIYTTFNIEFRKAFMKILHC
Put plainly: Inhibition of binding of 3H-spiperone to dopamine D-2 receptors. The conditions noted are these: inhibition of binding of 0.5 nM ³H-spiperone, read-out: medium inhibitory concentration IC₅₀.

Data set [2] concerns dopamine turnover and metabolism in rat brain striatum. The data set is described as follows: Antidopaminergic activity: effect on dopamine turnover and metabolism (homovanillic acid level) in rat brain. Type of data set: in vivo. The conditions noted are these: for increase in the concentration of homovanillic acid (% concentration of the metabolite in comparison with the control taken for 100 %): rat brain striatum, oral 80 mg/kg dose; for minimal effective dose: Rattus norvegicus, po, read-out: threshold dose which significantly increased homovanillic acid level.

Data set [3] is described as follows: in vivo. Particulars: mouse, po.
Data set [4] is described as follows: Depot neuroleptic evaluation (method not described). Type of data set: in vivo. Particulars: solution of the base (375 mg/ml) in Miglyol 812. The text has this:
2-{4-[2-(2-Chloro-10,11-dihydrodibenzo(b,f)thiepin-10-yloxy)ethyl]piperazin 1-yl} ethanol (compound I-A); succinate 3-{4-[2-(2-Chloro-10,11-dihydrodibenzo(b,f)thiepin-10-yloxy)ethyl]piperazin-1-yl} propanol (I-B); bis(hydrogensuccinate) 1-[2-(2-Chloro-10,11-dihydrodibenzo(b,f)thiepin-10-yloxy)ethyl]-4-methylpiperazine (I-C); bis(hydrogensuccinate) 1-[2-(2-Chloro-10,11-dihydrodibenzo(b,f)thiepin-10-yloxy)ethyl]piperazine (I-D); succinate 2-{4-[2-(2-Chloro-10,11-dihydrodibenzo(b,f)thiepin-10-yloxy)ethyl]piperazin-1-yl} ethyl acetate (I-E); bis(hydrogensuccinate) 2-{4-[2-(2-Chloro 10,11-dihydrodibenzo(b,f)thiepin-10-yloxy)ethyl]piperazin-1-yl} ethyl decanoate (I-F); tested as a solution of the base (375 mg/ml) in Miglyol 812 (Trade Mark).

Data set [5] has as its system spontaneous locomotor activity in mice. The data set is described as follows: Inhibition of spontaneous locomotor activity in mice, photocell method after Dews. Format: in vivo. The conditions noted are these: Mus musculus, oral, read-out: medium inhibitory dose D₅₀.
Data set [6] in a line: in vivo. Set-up: species or system mice. Particulars: mouse, po. How it is done:
(§1) Discoordinating effect (rota-rod test in mice), medium effective dose ED₅₀ 44.0 mg/kg, is still […] than for thioridazine (Taeschler M., Cerletti A., Schweiz.Med. Wochschr. 88, 1216, 1958); this is advantageous. […] Adrenolytic activity in mice is very low: an oral dose as high as 100 mg/kg prevents adrenaline-induced lethality in 20 % of the animals.

The test system of data set [7] is apomorphine-induced emesis in dogs. Put plainly: Inhibition of apomorphine-induced emesis in dogs. Format: in vivo. The conditions noted are these: 10 mg/kg, interval of 4 hours after administration.
Data set [8] concerns adrenaline-induced lethality. Put plainly: Adrenolytic activity in mice (adrenaline-induced lethality). The conditions noted are these: oral dose 100 mg/kg. Type of data set: in vivo. How it is done: as §1
For another data set, the system named is Maccacus rhesus monkeys. The conditions noted are these: rhesus monkey, in vivo, po, 10 mg/kg.
Data set [9] addresses T2, dopamine D-1 receptors in rat striatum (Rattus norvegicus, UniProt P18901).
T2 construct: dopamine D-1 receptors in rat striatum; from tissue; host or cells: rat striatum
Put plainly: Affinity to dopamine D-1 receptors. Type of data set: binding.

The nature of data set [10]: Anticholinergic activity in vitro.
Data set [11] can be described thus: Anticholinergic activity in vivo.
In the next data set the test system is re-uptake of serotonin. Put plainly: Inhibition of re-uptake of serotonin in rat brain. Format: biochemical.
The subject of data set [12] is re-uptake of noradrenaline. The data set is described as follows: Inhibition of re-uptake of noradrenaline in rat brain. Type of data set: biochemical.
The test system of another data set is mice. Particulars: reference compound, for comparison, literature citation given; cited from earlier work.

T2 sequence (P18901 whole entry): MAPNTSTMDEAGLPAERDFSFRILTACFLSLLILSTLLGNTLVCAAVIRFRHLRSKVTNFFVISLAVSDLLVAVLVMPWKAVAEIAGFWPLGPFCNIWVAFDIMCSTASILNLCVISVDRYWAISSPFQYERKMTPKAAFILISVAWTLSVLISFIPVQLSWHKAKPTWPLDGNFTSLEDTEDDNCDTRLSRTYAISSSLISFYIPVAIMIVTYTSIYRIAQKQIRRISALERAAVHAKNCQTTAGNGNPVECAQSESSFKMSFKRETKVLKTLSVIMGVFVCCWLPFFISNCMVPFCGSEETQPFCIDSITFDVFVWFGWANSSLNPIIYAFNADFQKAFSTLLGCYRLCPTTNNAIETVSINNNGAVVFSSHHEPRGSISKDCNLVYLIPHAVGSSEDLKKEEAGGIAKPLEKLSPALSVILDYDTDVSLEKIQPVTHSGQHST

For the molecule `CC(=O)OCCN1CCN(CCOC2Cc3cc(Cl)ccc3Sc3ccccc32)CC1` (racemic) [I-E, 2-{4-[2-(2-Chloro-10,11-dihydrodibenzo(b,f)thiepin-10-yloxy)ethyl]piperazin-1-yl} ethyl acetate], the pIC50 in data set [1] was 6.66. Also, the “increase in the concentration of homovanillic acid (% concentration of the metabolite in comparison with the control taken for 100 %)” value in [2] turned out to be 244%. Also, in the data set “in vivo [3]”, the LD50 was found to be 691 mg/kg.
Take `CCCCCCCCCC(=O)OCCN1CCN(CCOC2Cc3cc(Cl)ccc3Sc3ccccc32)CC1` (racemic) [I-F, 2-{4-[2-(2 Chloro-10,11-dihydrodibenzo(b,f)thiepin-10-yloxy)ethyl]piperazin-1-yl} ethyl decanoate]: in [4], the “duration of neuroleptic action” value was “substantially prolonged action”.
As to `OCCN1CCN(CCOC2Cc3cc(Cl)ccc3Sc3ccccc32)CC1` (centres unmarked) [I-A, 2-{4-[2-(2-Chloro-10,11-dihydrodibenzo(b,f)thiepin-10-yloxy)ethyl]piperazin-1-yl} ethanol], the ED50 in data set [5] came out at 15.7 mg/kg. Besides, the pIC50 in data set [1] is 6.67. Also, in data set [2] (corpus striatum), the minimal effective dose came out at 20 mg/kg. Moreover, in data set [2] (tuberculum olfactorium), the minimal effective dose stood at 10 mg/kg. Moreover, the “increase in the concentration of homovanillic acid (% concentration of the metabolite in comparison with the control taken for 100 %)” value in data set [2] worked out at 504%. In the data set “in vivo [6]”, this molecule displayed a TD50 of 44 mg/kg. Moreover, the “inhibition of apomorphine-induced emesis” value in [7] is “inhibitory effect”. Further, the “prevention of adrenaline-induced lethality, share of the animals” value in [8] came to 20%. Also, in the data set with Maccacus rhesus monkeys, the blood pressure entry is reported as “do not affect”, the “general behaviour of the animals” value was “do not affect” and the “heart rhythm (pulse rate)” value was “do not affect”. Besides, the “affinity to dopamine D-1 receptors” value in data set [9] is recorded as “slight affinity”. Besides, the anticholinergic activity result in data set [10] is reported as “very low”. For the same molecule, the anticholinergic activity result in data set [11] is listed as “very low”. Also, the “inhibition of re-uptake of serotonin” value in the data set on re-uptake of serotonin was “weak inhibitor”. In addition, the “inhibition of re-uptake of noradrenaline” value in data set [12] was “weak inhibitor”. In the data set “in vivo [3]”, this molecule returned an LD50 of 346 mg/kg.
Regarding `OCCCN1CCN(CCOC2Cc3cc(Cl)ccc3Sc3ccccc32)CC1` (centres unmarked) [I-B, 3-{4-[2-(2-Chloro-10,11-dihydrodibenzo(b,f)thiepin-10-yloxy)ethyl]piperazin-1-yl} propanol], the pIC50 in data set [1] is 6.46. The molecule also had an LD50 in “in vivo [3]” of 618 mg/kg.
With `CN1CCN(CCOC2Cc3cc(Cl)ccc3Sc3ccccc32)CC1` (centres unmarked) [I-C, 1-[2-(2-Chloro-10,11-dihydrodibenzo(b,f)thiepin-10-yloxy)ethyl]-4-methylpiperazine], the pIC50 in data set [1] was 6.58. The molecule also registered an LD50 in the data set “in vivo [3]” of 401 mg/kg.
For `Clc1ccc2c(c1)CC(OCCN1CCNCC1)c1ccccc1S2` (centres unmarked) [I-D, 1-[2-(2-Chloro-10,11-dihydrodibenzo(b,f)thiepin-10-yloxy)ethyl]piperazine], in that order: 6.00 and 509 mg/kg.
As to `CN1CCN(C2=Nc3cc(Cl)ccc3Nc3ccccc32)CC1` [clozapine, reference compound], the ED50 in data set [5] amounted to 1.05 mg/kg. Moreover, in the data set on mice, the “acute toxicity, LD₅₀” value is 199 mg/kg.
